The structures appear in SMILES notation. Where only a bound is given, the exact number is not on record here.

Consider one compound from patent publication US20210230179A1, “THIENO[2,3-B]PYRIDINE DERIVATIVES AS EPAC INHIBITORS AND THEIR PHARMACEUTICAL USES” (INSTITUT NATIONAL DE LA SANTE ET DE LA RECHERCHE MEDICALE …, priority 2018, published 2021).

This assay deals with T1, Epac2 (Homo sapiens, UniProt Q8WZA2).
T1 sequence (Q8WZA2 1-867 isoform Q8WZA2-3): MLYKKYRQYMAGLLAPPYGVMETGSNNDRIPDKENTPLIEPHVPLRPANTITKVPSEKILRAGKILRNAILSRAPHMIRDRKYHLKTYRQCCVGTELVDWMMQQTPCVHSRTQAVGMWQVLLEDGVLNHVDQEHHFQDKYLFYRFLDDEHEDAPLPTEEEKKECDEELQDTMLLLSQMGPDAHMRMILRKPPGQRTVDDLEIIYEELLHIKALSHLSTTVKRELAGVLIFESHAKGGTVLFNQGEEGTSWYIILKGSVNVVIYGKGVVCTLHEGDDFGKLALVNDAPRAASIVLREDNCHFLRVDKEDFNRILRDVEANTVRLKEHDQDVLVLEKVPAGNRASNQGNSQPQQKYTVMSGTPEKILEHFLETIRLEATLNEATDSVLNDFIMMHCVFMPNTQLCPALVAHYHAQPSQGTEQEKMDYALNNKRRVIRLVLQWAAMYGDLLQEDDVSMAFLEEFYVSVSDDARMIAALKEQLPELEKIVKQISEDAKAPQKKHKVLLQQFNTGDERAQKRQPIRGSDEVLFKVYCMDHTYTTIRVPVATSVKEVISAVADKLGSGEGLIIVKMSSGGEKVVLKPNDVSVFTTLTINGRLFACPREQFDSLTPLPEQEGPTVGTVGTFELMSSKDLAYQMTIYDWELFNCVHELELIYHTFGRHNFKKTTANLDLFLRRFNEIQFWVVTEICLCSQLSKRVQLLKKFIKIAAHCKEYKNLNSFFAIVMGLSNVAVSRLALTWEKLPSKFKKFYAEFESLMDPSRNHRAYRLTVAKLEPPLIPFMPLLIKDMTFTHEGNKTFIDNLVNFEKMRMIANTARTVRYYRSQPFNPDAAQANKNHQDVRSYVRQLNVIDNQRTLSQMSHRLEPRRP
The assay can be described thus: Epac GEF activity assay (b-GDP dissociation from recombinant Rap1), Epac2. Type of assay: biochemical. The source says: FIGS. 4-8. […] Variations of relative fluorescence units (RFU) were studied as a function of time and fitted to single exponentials.

As to `Nc1c(C(=O)Nc2ccc(F)cc2)sc2nc(-c3cccs3)cc(-c3ccccc3)c12` [AM-001, 3-amino-N-(4-fluorophenyl)-4-phenyl-6-(thiophen-2-yl)thieno[2,3-b]pyridine-2-carboxamide], the “effect on Epac2 GEF activity” value (30 μM Sp-8-CPT, 20 μM inhibitor) was “no inhibitory effect”. The IC50 (Sp-8-CPT at its EC50 for the isoform) is greater than 1000 µM and the IC50 (saturating concentration of Sp-8-CPT) was greater than 1000 µM.
